Laboratory results as given in patent US7884076B2, “Multipeptide regimen for the treatment of autistic spectrum, behavioral, emotional and visceral inflammation/autoimmune disorders” (The Trustees of Columbia University In the City of New York, priority 2003, dated 2011).
“Also recorded” adds a separate entry of the source. No end group written: not given here.

Experiments:
[1] = system: IL10-/- colitis, colon inflammation; experiment: IL-10-/- mouse colitis (genetic IBD), hematoxylin/eosin gut histology; type: in vivo, C57B6 IL-10-/- mice; details: I.P. infusion by Alzet pump, vs saline
Excerpt: An acquired IBD model was created by inducing Colitis in male Sprague-Dawley rats (n=10) with trinitrobenzene sulfonic acid (TNBS) enema. A genetic IBD model was also created using IL-10 mutant mice. IBD criteria was confirmed in both groups by analyzing numbers of lymphocytes and epithelial destruction, and concomitant cerebral metabolic activity patterns comparing regional induction of c-fos gene expression. Control rats (n=11) and control mice (n=5) were also maintained.
Both the acquired IBD (rat) and genetic IBD (mouse) groups were treated with a combined peptide therapy consisting of co-administration of secretin and oxytocin. The acquired IBD subjects were administered a combination of secretin and oxytocin (40 μg/100 μl i.v.×7-20 days two weeks after disease induction). The genetic IBD subjects were administered a combination of secretin and oxytocin (40 μg/100 μl i.v.×7-20 days at age 18 weeks).
Data were obtained in 21 adult male Sprague-Dawley rats weighing 250-450 g and in 14 C57B6 IL-10−/− mice. Rats were obtained from Hilltop Lab Animals, Inc. (Scottdale, Pa.) and housed at the New York State Psychiatric Institute Housing Facility. Mice were obtained from Jackson Laboratory (Bar Harbor, Me.) and housed at the Eye Institute Annex of Columbia University.
Sprague-Dawley rats (n=10) were anesthetized with ketamine and xylazine and administered a solution of trinitrobenzene sulfonic acid (TNBS). 0.5 ml of TNBS solution (100 μl TNBS 5% solution; 150 μl PBS; 250 μl 100% ethanol) […] was administered intrarectally (Dohi T, et al., '00). Control rats (n=11) were injected with phosphate buffered saline (PBS) solution alone. On days 0, 3 and 7, the TNBS enema was administered via a glass microsyringe equipped with a gastric intubation needle. The animals were treated at the following time intervals: […] after the TNBS treatment in the Sprague-Dawley rats and at 18 weeks of age in the IL-10−/− mice.
Animals were anesthetized with xylazine (7-10 mg/kg I.P.) and ketamine (60 mg/kg I.P.) prior to implantation of an Alzet pump (model #2002). […]

[2] = system: c-fos protein expression in brain regions; experiment: i.c.v. secretin, immunocytochemical detection of Fos in rat brain; type: in vivo, Sprague-Dawley rats; details: i.c.v. lateral ventricle, secretin vs PBS, perfused 3 hours after injection, region named in the value
Excerpt: The inventors obtained data in eight adult male Sprague-Dawley rats weighing 250-450 g. The rats were obtained from Hilltop Lab Animals, Inc. (Scottdale, Pa.). Under ketamine-xylazine anesthesia, using sterile techniques, a stainless steel guide cannula was stereotaxically inserted into the lateral ventricle of each rat. Each cannula was affixed in place with dental cement secured to the skull. To prevent clogging, a removable 27 gauge wire was inserted into the guide cannula. The placement of the cannula with reference to bregma was 1.4-mm lateral, 0.5-mm caudal, and a depth of 2.5 mm from the surface of the skull. The rats were allowed to recover for 4-5 days before the injections. During this time, both experimental and control rats were administered 0.01 ml/kg buprinorphine hydrochloride every 6 h to reduce pain. Injections were made in the lateral ventricle 5 mm from the surface of the skull, via a premeasured cannula attached by polyethylene tubing (PE20) to a 25 ILL Hamilton syringe containing either phosphate buffered saline (PBS) at pH 7.4 (n=4) or 10 ILg (n=1, pilot study) or 30 ILg (n=3) of secretin (Sigma, St. Louis, Mo.) dissolved in 5-10 ILL PBS. Secretin injections were performed between 11:00 A.M. and 1:00 P.M.
Three hours after the i.c.v. injection, rats were administered sodium pentobarbital and perfused transcardially with heparinized, physiological saline followed by a 4% solution of paraformaldehyde in sodium phosphate buffer, pH 7.4. Whole brains were removed and blocked. Identical procedures were followed in control (n=4) and experimental animals (n=4). Tissue blocks were postfixed for 2-3 h in individual glass vials containing 4% paraformaldehyde in 0.1 M phosphate buffer (PBS, pH 7.4) and cryoprotected overnight at 4° C. in a solution of 10% sucrose in 0.1 M PBS. Frozen sections were cut on a sliding microtome at 30 JLm in the transverse plane and every fourth section was processed immunocytochemically for c-fos protein. Tissues from control and experimental animals were processed simultaneously in the same solutions in order to control for potential variability in immunocytochemistry. All incubations were carried out in separate test wells on a Thomas rotator table. Tissues were collected in 0.1 M PBS (pH 7.4) in spot test wells and washed in Tris-buffered saline (TBS) between each step. Nonspecific binding sites were blocked by preincubating for 30 min in bovine serum albumin (BSA), diluted 1:30 in TBS. Thereafter, sections were incubated overnight in primary whole rabbit antiserum raised against Fos protein diluted 1:10,000 (Oncogene, Cambridge, Mass.). The antisera were diluted in TBS containing 0.1% BSA, to which 0.25% Triton X-100 was added to facilitate antibody penetration. […]

[3] = system: c-fos protein expression in brain regions; experiment: as above; type: in vivo, Sprague-Dawley rats; details: secretin infusion into the fourth ventricle (Example 4)

With “secretin (HSDGTFTSELSRLRDSARLQRLLQGLV; not fully specified; ends and bridges not checked; UniProt P63298 33-59, looked up) [twenty-seven amino acid peptide and an enterogastrone; commercially available as SecreFlo]” the “colon inflammation / inflammatory infiltrates, hematoxylin and eosin histology” value [1] was “partial resolution of colon inflammation”, the “colon inflammation / inflammatory infiltrates, hematoxylin and eosin histology” value ([1]; listed as S) was “partial resolution of inflammation” and the “colon inflammation / inflammatory infiltrates, hematoxylin and eosin histology” value ([1]; listed as Secretin) was “dramatic increase in inflammatory infiltrate”. For the same substance, the “Fos immunoreactivity (c-fos expression) attenuated in brain regions” value [2] was “attenuated Fos labeling; also recorded: attenuated c-fos expression of the parietal cortex”, the “Fos immunoreactivity (c-fos expression) induced in brain regions” value [2] was “c-fos induction in ependymal and subependymal nuclei lining the third ventricle; also recorded: most heavily concentrated along the medial bank of the prefrontal cortex, the orbitofrontal cortex, the anterior olfactory nucleus, and the piriform cortex; also recorded: Fos immunoreactivity in behavioral, endocrine, and autonomic areas; also recorded: activated the NTS and its projection fields in the reticular formation, diffuse projection systems and the mesolimbic network; also recorded: area postrema was also activated; also recorded: induced c-fos expression in the locus ceruleus (LC); also recorded: induced c-fos expression of ependymal (arrows) and subependymal cells lining the third ventricle (III); also recorded: induced c-fos expression of the piriform cortex” and the “Fos immunoreactivity (c-fos expression) attenuated in brain regions” value ([2]; listed as Secretin) was “attenuated Fos immunoreactivity in the dorsal periaqueductal gray, the intralamanar thalamus, the medial parvicellular hypothalamus, which synthesizes corticotrophin releasing hormone, the motor cortex, and the somatosensory and association areas of the parietal cortex”. For the same substance, the “Fos immunoreactivity (c-fos expression) induced in brain regions” value ([2]; listed as Secretin) was “altered numbers of Fos immunoreactive nuclei, mainly in visceral and limbic areas of the brain; also recorded: induced c-fos protein expression in the dorsal vagal complex, including the general afferent division of NTS and the dorsal motor nucleus; also recorded: Fos IR was concentrated throughout the area postrema and its subpostremal region of transition with the NTS and the commissural, medial parvicellular and periventricular subnuclei; also recorded: activated c-fos expression in cells in the intermediate reticular region of the lateral tegmental field; also recorded: induced c-fos expression in the locus ceruleus (FIG. 3), ventral periaqueductal gray, and the paraventricular thalamic nucleus; also recorded: the predominant labeling mapped to the paraventricular hypothalamic nucleus, mainly its periventricular region and magnocellular subdivision; also recorded: induced c-fos in the medial and central amygdala and the lateral septal complex” and the brain regions activated [3] was “activated comparable brain regions; viscerothalamic and HPA stress axes, amygdala, and ependyma”.
